Patent US20250382570A1, “GENERATION AND APPLICATION OF FUNCTIONAL HUMAN ASTROCYTES FROM PLURIPOTENT STEM CELLS” (The Regents of the University of California, priority 2022, published 2025)

Tested on: iAstrocytes
Test: Time-lapse imaging of phagocytosis of pHrodoRed-conjugated myelin by iAstrocytes
Type: cell-based, human
Conditions: imaging over 24 h
Protocol: FIGS. 3A-3B: (FIG. 3A) iAstrocytes are compatible for study with microglia co-cultures. Cultured iAstrocytes are subsequently incubated with iPSC-derived microglia (Abud et al., 2017). (FIG. 3B) iAstrocytes are labeled with GFAP and iPSC-derived microglia are labeled with Iba1 (light grey). The differentiation protocols for both microglia and astrocytes are serum-free and thus, make them compatible to study together without the confounds of serum activation of glia. Astrocytes phagocytose pHrodoRed-labeled myelin.
(FIGS. 4A-4C, FIG. 4A: 0 hour; FIG. 4B, 12 hours; and FIG. 4C, 24 hours). Phagocytosis can be visualized by pHrodoRed internalization which is absent at time zero (FIG. 4A). Phagocytosis of pHrodoRed-conjugated myelin is detected in iAstrocytes at 12 h (FIG. 4B), which gradually increases with time (24 h, FIG. 4C). FIG. 4D graphically depicts total red object area (y-axis) versus time in hours (x-axis).

TGFβ: Growth factor stated as necessary for quiescent astrocytes; inhibits myelin phagocytosis by iAstrocytes
effect on phagocytosis of myelin by iAstrocytes: inhibited
